In PubChem BioAssay AID2060344 (Molecular Pharmacology Branch, DTP, NCI, 2025):

System: SK-MEL-2 multi-cell spheroids, viability
Experiment: Anticancer human tumor SK-MEL-2 cell line growth inhibition [TAK];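 further: spheroids exposed to drugs for seven days before readout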;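 on viability, T/C: percent of DMSO vehicle control luminescence so 100% = untreated viability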
Settings: for IC50: curve of first compound; for viability, T/C: stronger effect = lower value; active means viability on the fitted dose curve at most 10% of control; inactive means the rest
From the text: Combinatorial screen of targeted agents with TAK-243 and ipatasertib in multi-cell type tumor spheroids
A high-throughput screen of multi-cell type tumor spheroids was designed to identify active combinations of targeted small molecules and TAK-243 or ipatasertib. Complex spheroids include a stromal component modeled by human endothelial cells (HUVEC) and fibroblasts modeled by human mesenchymal stem cells (MSCs). The concentration ranges selected for each drug and investigational agent were based upon clinically achievable concentrations if the clinical Cmax of the agent was known.
Compounds. The drugs and investigational agents: TAK-243 (785004), ipatasertib (767898), everolimus (733504), selumetinib (741078), bortezomib (756655), trametinib (758246), ixazomib (758254), vemurafenib (761431), dabrafenib (764134), sapanisertib (764658), alpelisib (765974), and copanlisib (816437), were obtained from the National Cancer Institute (NCI) Developmental Therapeutics Program Chemical Repository. The FDA-approved anticancer drug set is available from the NCI Developmental Therapeutics Program. […] The stock solutions were prepared in dimethyl sulfoxide (DMSO, Sigma-Aldrich, St. Louis, MO, cat. D2650) at 800-fold the tested concentration and stored at -70 degrees C prior to their use. All drugs and investigational agents were tested over a range starting from a high concentration at or near the clinical Cmax and decreasing in half-log increments. If the clinical Cmax for an agent had not been determined, the highest concentration tested was 10 microM.
NCI60 Cell Culture. NCI60 cell lines were obtained from the NCI Developmental Therapeutics Program Tumor Repository. For each lot of cells, the Repository performed Applied Biosystems AmpFLSTR Identifiler testing with PCR amplification to confirm consistency with the published Identifier STR profile for each cell line. Cells were kept in continuous culture for no more than 20 passages. The optimal seeding densities for each of the cell lines at each time point assessed were determined prior to performing the concentration response studies. Briefly, the NCI60 human tumor lines were grown as monolayers in RPMI 1640 medium supplemented with 10% FBS and 2 mmol/L L-glutamine.
An additional 2 lines were from the NCI60 cell line panel including melanomas, MALME-3M and SK-MEL-2. Pooled donor human umbilical vein endothelial cells (HUVEC, Lonza, cat. CC-2519) and human mesenchymal stem cells (hMSC, Lonza, cat. PT-2501) were purchased from Lonza (Walkersville, MD).
PDMR cell lines were grown in complete medium (DC medium): Dulbecco's modified Eagle's medium (DMEM)/F12 supplemented with 5% fetal bovine serum (FBS), 2 mM L-glutamine, 100 U/mL penicillin and 100 µg/ml streptomycin, 0.4 µg/ml hydrocortisone, 10 ng/ml epidermal growth factor (EGF) recombinant human protein, 24 µg/mL adenine, and 0.1 mg/mL primocin. During culture from frozen stock vials, PDMR cells were cultured in the same medium containing 10 µM Y-27632 (see Table 3). The PDCs were cultured in complete DMEM/F12 media without 10 microM Y-27632 dihydrochloride for at least two passages prior to the screen. The pooled donor HUVEC and hMSC were cultured in endothelial cell growth medium 2 (PromoCell, Heidelberg, Germany, cat. C-22011) and mesenchymal stem cell growth medium 2 (PromoCell, cat. C-28009), respectively. For all experiments, HUVEC and hMSC were used at passages </=5.
For the pre-screen, cell seeding densities were determined from a titration spanning the range from 5,000 to 313 cells per well. The mct-spheroids including 60% malignant cells, 25% HUVEC and 15% MSC dispensed as a mixture into U-bottom Ultra-Low Attachment 384-well plates (Corning, NY)
High-throughput Drug Combination Screening.
Prior to their inoculation into 384-well plates, malignant cells, HUVEC, and hMSC were removed from T flasks using TrypLE express (Thermo Fisher Scientific, cat. 12605036) and harvested by centrifugation for 5 min at 233 x g. […]

[1] = second compound 0.3 µM, first compound 0.0316 µM
[2] = second compound 0.3 µM, first compound 0.1 µM
[3] = second compound 0.949 µM, first compound 0.0316 µM
[4] = second compound 0.949 µM, first compound 0.1 µM
[5] = second compound 3 µM, first compound 0.0316 µM
[6] = second compound 3 µM, first compound 0.1 µM
[7] = second compound 9.49 µM, first compound 0.0316 µM
[8] = second compound 9.49 µM, first compound 0.1 µM
[9] = second compound 30 µM, first compound 0.0316 µM
[10] = second compound 30 µM, first compound 0.1 µM

Cc1nc(NC(=O)N2CCCC2C(N)=O)sc1-c1ccnc(C(C)(C)C(F)(F)F)c1 (stereo not given) + CC(C)NCC(C(=O)N1CCN(c2ncnc3c2C(C)CC3O)CC1)c1ccc(Cl)cc1
inactive: viability, T/C [1] 97% | viability, T/C [2] 84.7% | viability, T/C (second compound 0.3 µM, first compound 0.316 µM) 70.5% | viability, T/C (second compound 0.3 µM, first compound 1 µM) 79.8% | viability, T/C (second compound 0.3 µM, first compound 3.16 µM) 75.3% | viability, T/C (second compound 0.3 µM, first compound 10 µM) 55.6% | viability, T/C [3] 85% | viability, T/C [4] 74.7% | viability, T/C (second compound 0.949 µM, first compound 0.316 µM) 64.8% | viability, T/C (second compound 0.949 µM, first compound 1 µM) 65.8% | viability, T/C (second compound 0.949 µM, first compound 3.16 µM) 59.5% | viability, T/C (second compound 0.949 µM, first compound 10 µM) 49.4% | viability, T/C [5] 66.1% | viability, T/C [6] 67.3% | viability, T/C (second compound 3 µM, first compound 0.316 µM) 52.8% | viability, T/C (second compound 3 µM, first compound 1 µM) 58.8% | viability, T/C (second compound 3 µM, first compound 3.16 µM) 57.3% | viability, T/C (second compound 3 µM, first compound 10 µM) 51.2% | viability, T/C [7] 56% | viability, T/C [8] 56.4% | viability, T/C (second compound 9.49 µM, first compound 0.316 µM) 48.7% | viability, T/C (second compound 9.49 µM, first compound 1 µM) 51.1% | viability, T/C (second compound 9.49 µM, first compound 3.16 µM) 55.9% | viability, T/C (second compound 9.49 µM, first compound 10 µM) 49.2% | viability, T/C [9] 52.4% | viability, T/C [10] 55.8% | viability, T/C (second compound 30 µM, first compound 0.316 µM) 46.2% | viability, T/C (second compound 30 µM, first compound 1 µM) 43.7% | viability, T/C (second compound 30 µM, first compound 3.16 µM) 50.3% | viability, T/C (second compound 30 µM, first compound 10 µM) 40%
> 10000 nM: IC50 (second compound 0.3 µM) | IC50 (second compound 0.949 µM) | IC50 (second compound 3 µM) | IC50 (second compound 9.49 µM)
218 nM: IC50 (second compound 30 µM)

COC1CC2CCC(C)C(O)(O2)C(=O)C(=O)N2CCCCC2C(=O)OC(C(C)CC2CCC(OCCO)C(OC)C2)CC(=O)C(C)C=C(C)C(O)C(OC)C(=O)C(C)CC(C)C=CC=CC=C1C (stereo not given) + CC(C)NCC(C(=O)N1CCN(c2ncnc3c2C(C)CC3O)CC1)c1ccc(Cl)cc1
0.725 nM: IC50 (second compound 0.949 µM)
inactive: viability, T/C (second compound 0.3 µM, first compound 0.000316 µM) 72.6% | viability, T/C (second compound 0.3 µM, first compound 0.001 µM) 60.3% | viability, T/C (second compound 0.3 µM, first compound 0.00316 µM) 48.9% | viability, T/C (second compound 0.3 µM, first compound 0.01 µM) 49.6% | viability, T/C [1] 45.1% | viability, T/C [2] 42.6% | viability, T/C (second compound 0.949 µM, first compound 0.000316 µM) 58.9% | viability, T/C (second compound 0.949 µM, first compound 0.001 µM) 47.5% | viability, T/C (second compound 0.949 µM, first compound 0.00316 µM) 39.2% | viability, T/C (second compound 0.949 µM, first compound 0.01 µM) 38.6% | viability, T/C [3] 37.9% | viability, T/C [4] 36.8% | viability, T/C (second compound 3 µM, first compound 0.000316 µM) 45.5% | viability, T/C (second compound 3 µM, first compound 0.001 µM) 37.7% | viability, T/C (second compound 3 µM, first compound 0.00316 µM) 27.7% | viability, T/C (second compound 3 µM, first compound 0.01 µM) 27.3% | viability, T/C [5] 30.2% | viability, T/C [6] 28% | viability, T/C (second compound 9.49 µM, first compound 0.000316 µM) 36.7% | viability, T/C (second compound 9.49 µM, first compound 0.001 µM) 30.7% | viability, T/C (second compound 9.49 µM, first compound 0.00316 µM) 23.2% | viability, T/C (second compound 9.49 µM, first compound 0.01 µM) 23.6% | viability, T/C [7] 24% | viability, T/C [8] 21.6% | viability, T/C (second compound 30 µM, first compound 0.000316 µM) 30.3% | viability, T/C (second compound 30 µM, first compound 0.001 µM) 27.6% | viability, T/C (second compound 30 µM, first compound 0.00316 µM) 20.4% | viability, T/C (second compound 30 µM, first compound 0.01 µM) 19.1% | viability, T/C [9] 22% | viability, T/C [10] 17.9%
4.54 nM: IC50 (second compound 0.3 µM)
< 0.316 nM: IC50 (second compound 3 µM) | IC50 (second compound 9.49 µM) | IC50 (second compound 30 µM)

CC(=O)Nc1cccc(-n2c(=O)n(C3CC3)c(=O)c3c(Nc4ccc(I)cc4F)n(C)c(=O)c(C)c32)c1 + CC(C)NCC(C(=O)N1CCN(c2ncnc3c2C(C)CC3O)CC1)c1ccc(Cl)cc1
active: viability, T/C (second compound 0.3 µM, first compound 0.003 µM) 5.62% | viability, T/C (second compound 0.3 µM, first compound 0.00949 µM) 2.19% | viability, T/C (second compound 0.3 µM, first compound 0.03 µM) 1.65% | viability, T/C (second compound 0.949 µM, first compound 0.003 µM) 3.49% | viability, T/C (second compound 0.949 µM, first compound 0.00949 µM) 1.83% | viability, T/C (second compound 0.949 µM, first compound 0.03 µM) 1.53% | viability, T/C (second compound 3 µM, first compound 0.000949 µM) 3.96% | viability, T/C (second compound 3 µM, first compound 0.003 µM) 2.14% | viability, T/C (second compound 3 µM, first compound 0.00949 µM) 1.28% | viability, T/C (second compound 3 µM, first compound 0.03 µM) 0.92% | viability, T/C (second compound 9.49 µM, first compound 0.000949 µM) 5.57% | viability, T/C (second compound 9.49 µM, first compound 0.003 µM) 1.46% | viability, T/C (second compound 9.49 µM, first compound 0.00949 µM) 1.58% | viability, T/C (second compound 9.49 µM, first compound 0.03 µM) 0.65% | viability, T/C (second compound 30 µM, first compound 0.000949 µM) 3.27% | viability, T/C (second compound 30 µM, first compound 0.003 µM) 1.19% | viability, T/C (second compound 30 µM, first compound 0.00949 µM) 0.56% | viability, T/C (second compound 30 µM, first compound 0.03 µM) 1.06%
0.203 nM: IC50 (second compound 0.3 µM)
< 0.0949 nM: IC50 (second compound 3 µM) | IC50 (second compound 9.49 µM) | IC50 (second compound 30 µM)
0.15 nM: IC50 (second compound 0.949 µM)
inactive: viability, T/C (second compound 0.3 µM, first compound 94.9 pM) 78.9% | viability, T/C (second compound 0.3 µM, first compound 0.0003 µM) 35.2% | viability, T/C (second compound 0.3 µM, first compound 0.000949 µM) 10.4% | viability, T/C (second compound 0.949 µM, first compound 94.9 pM) 63.2% | viability, T/C (second compound 0.949 µM, first compound 0.0003 µM) 29.8% | viability, T/C (second compound 0.949 µM, first compound 0.000949 µM) 10.2% | viability, T/C (second compound 3 µM, first compound 94.9 pM) 47% | viability, T/C (second compound 3 µM, first compound 0.0003 µM) 21% | viability, T/C (second compound 9.49 µM, first compound 94.9 pM) 39% | viability, T/C (second compound 9.49 µM, first compound 0.0003 µM) 19.2% | viability, T/C (second compound 30 µM, first compound 94.9 pM) 39.5% | viability, T/C (second compound 30 µM, first compound 0.0003 µM) 17.5%
